From PubChem BioAssay AID330 (DTP/NCI, 2004)
Several values for one entry are separate records, joined by “and”; a condition that tells them apart may be missing. Identical values can stand only once. Inconclusive results and toxic doses are left out.

Test system: P388 leukemia ip, CD2F1 mice, survival T/C
Experiment: NCI In Vivo Anticancer Drug Screen. Data for tumor model P388 Leukemia (intraperitoneal) in CD2F1 (CDF1) mice
Conditions: endpoint: median survival time, higher = longer survival
Outline: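 Mice carrying the transplanted tumor received test compound or vehicle. Survival was recorded in each group, and the value is the treated-group measurement divided by that of the vehicle-treated control group.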

[1] = dose: 50.0 mg/kg/injection, schedule: Q01DX005 (ip), vehicle: saline
[2] = dose: 100.0 mg/kg/injection, schedule: Q01DX005 (ip), vehicle: saline
[3] = dose: 50.0 mg/kg/injection, schedule: Q01DX005 (ip), vehicle: saline with Tween-80
[4] = dose: 100.0 mg/kg/injection, schedule: Q01DX005 (ip), vehicle: saline with Tween-80
[5] = dose: 200.0 mg/kg/injection, schedule: Q01DX005 (ip), vehicle: saline with Tween-80

CO[C@@]12[C@H](COC(N)=O)C3=C(C(=O)C(C)=C(N)C3=O)N1C[C@@H]1N[C@@H]12
T/C (dose: 0.25 mg/kg/injection, schedule: Q01DX009 (ip), vehicle: saline with Tween-80): 160 % of control and 166 % of control
T/C (dose: 0.5 mg/kg/injection, schedule: Q01DX009 (ip), vehicle: saline with Tween-80): 150 % of control and 157 % of control and 210 % of control
T/C (dose: 0.5 mg/kg/injection, schedule: Q04DX003 (ip), vehicle: saline): 112 % of control
T/C (dose: 0.65 mg/kg/injection, schedule: Q04DX002 (ip), vehicle: saline): 160 % of control
T/C (dose: 0.75 mg/kg/injection, schedule: Q04DX003 (ip), vehicle: saline): 150 % of control and 163 % of control
T/C (dose: 0.75 mg/kg/injection, schedule: Q04DX003 (ip), vehicle: water): 170 % of control
T/C (dose: 0.78 mg/kg/injection, schedule: Q04DX003 (ip), vehicle: saline): 152 % of control and 153 % of control
T/C (dose: 0.97 mg/kg/injection, schedule: Q04DX003 (ip), vehicle: saline): 150 % of control
T/C (dose: 1.0 mg/kg/injection, schedule: Q01DX009 (ip), vehicle: saline with Tween-80): 166 % of control and 169 % of control
T/C (dose: 1.08 mg/kg/injection, schedule: Q04DX002 (ip), vehicle: saline): 164 % of control
T/C (dose: 1.1 mg/kg/injection, schedule: Q04DX003 (ip), vehicle: water): 159 % of control
T/C (dose: 1.3 mg/kg/injection, schedule: Q04DX002 (ip), vehicle: saline): 163 % of control
T/C (dose: 1.3 mg/kg/injection, schedule: Q04DX003 (ip), vehicle: saline): 174 % of control and 180 % of control
T/C (dose: 1.5 mg/kg/injection, schedule: Q04DX003 (ip), vehicle: saline): 155 % of control and 161 % of control and 183 % of control
T/C (dose: 1.5 mg/kg/injection, schedule: Q04DX003 (ip), vehicle: water): 163 % of control and 200 % of control
T/C (dose: 1.62 mg/kg/injection, schedule: Q04DX003 (ip), vehicle: saline): 163 % of control
T/C (dose: 1.8 mg/kg/injection, schedule: Q04DX002 (ip), vehicle: saline): 175 % of control
T/C (dose: 1.8 mg/kg/injection, schedule: Q04DX003 (ip), vehicle: water): 174 % of control
T/C (dose: 2.0 mg/kg/injection, schedule: Q01DX009 (ip), vehicle: saline with Tween-80): 104 % of control and 120 % of control
T/C (dose: 2.0 mg/kg/injection, schedule: Q04DX003 (ip), vehicle: saline): 163 % of control
T/C (dose: 2.16 mg/kg/injection, schedule: Q04DX002 (ip), vehicle: saline): 162 % of control
T/C (dose: 2.16 mg/kg/injection, schedule: Q04DX003 (ip), vehicle: saline): 155 % of control (2×) and 174 % of control
T/C (dose: 2.7 mg/kg/injection, schedule: Q04DX003 (ip), vehicle: saline): 183 % of control and 204 % of control
T/C (dose: 3.0 mg/kg/injection, schedule: Q01DX001 (ip), vehicle: saline): 169 % of control
T/C (dose: 3.0 mg/kg/injection, schedule: Q04DX002 (ip), vehicle: saline): 212 % of control
T/C (dose: 3.0 mg/kg/injection, schedule: Q04DX003 (ip), vehicle: water): 190 % of control and 197 % of control
T/C (dose: 3.5 mg/kg/injection, schedule: Q01DX001 (ip), vehicle: carboxymethylcellulose (CMC)): 183 % of control
T/C (dose: 3.6 mg/kg/injection, schedule: Q01DX001 (ip), vehicle: water): 175 % of control and 176 % of control
T/C (dose: 3.6 mg/kg/injection, schedule: Q04DX002 (ip), vehicle: saline): 159 % of control
T/C (dose: 3.6 mg/kg/injection, schedule: Q04DX003 (ip), vehicle: saline): 184 % of control and 220 % of control and 235 % of control
T/C (dose: 4.0 mg/kg/injection, schedule: Q01DX001 (ip), vehicle: saline): 156 % of control and 167 % of control
T/C (dose: 4.0 mg/kg/injection, schedule: Q04DX003 (ip), vehicle: saline): 150 % of control
T/C (dose: 4.4 mg/kg/injection, schedule: Q01DX001 (ip), vehicle: saline): 158 % of control
T/C (dose: 4.5 mg/kg/injection, schedule: Q04DX003 (ip), vehicle: saline): 219 % of control
T/C (dose: 4.7 mg/kg/injection, schedule: Q01DX001 (ip), vehicle: saline): 174 % of control
T/C (dose: 5.0 mg/kg/injection, schedule: Q04DX002 (ip), vehicle: saline): 157 % of control
T/C (dose: 5.0 mg/kg/injection, schedule: Q04DX003 (ip), vehicle: water): 228 % of control
T/C (dose: 5.3 mg/kg/injection, schedule: Q01DX001 (ip), vehicle: carboxymethylcellulose (CMC)): 191 % of control
T/C (dose: 5.4 mg/kg/injection, schedule: Q01DX001 (ip), vehicle: water): 184 % of control and 206 % of control and 216 % of control
T/C (dose: 6.0 mg/kg/injection, schedule: Q01DX001 (ip), vehicle: saline): 162 % of control and 166 % of control and 255 % of control
T/C (dose: 6.0 mg/kg/injection, schedule: Q04DX002 (ip), vehicle: saline): 120 % of control
T/C (dose: 6.7 mg/kg/injection, schedule: Q01DX001 (ip), vehicle: saline): 188 % of control
T/C (dose: 7.0 mg/kg/injection, schedule: Q01DX001 (ip), vehicle: saline): 165 % of control
T/C (dose: 7.5 mg/kg/injection, schedule: Q04DX003 (ip), vehicle: saline): 122 % of control
T/C (dose: 8.0 mg/kg/injection, schedule: Q01DX001 (ip), vehicle: water): 178 % of control and 222 % of control and 280 % of control
T/C (dose: 8.3 mg/kg/injection, schedule: Q04DX003 (ip), vehicle: water): 87 % of control

Cc1cnc(F)nc1F
T/C [1]: 94 % of control
T/C [2]: 97 % of control

BrCCCC1OCCO1
T/C (dose: 60.0 mg/kg/injection, schedule: Q01DX005 (ip), vehicle: saline with Tween-80): 100 % of control
T/C (dose: 120.0 mg/kg/injection, schedule: Q01DX005 (ip), vehicle: saline with Tween-80): 100 % of control
T/C (dose: 240.0 mg/kg/injection, schedule: Q01DX005 (ip), vehicle: saline with Tween-80): 104 % of control

CCOc1ccc(/C=N/NC(=O)c2c(-c3ccccc3)noc2C)cc1
T/C [3]: 86 % of control
T/C [4]: 91 % of control
T/C [5]: 97 % of control

Cc1c(O)c2ccc(N(C)C)cc2[nH]c1=O
T/C [3]: 101 % of control
T/C [4]: 95 % of control
T/C [5]: 100 % of control

COc1cc(C2CC(C)(N3CCCC3)Oc3cc4c(cc32)OCO4)cc(OC)c1OC (centres undefined)
T/C (dose: 60.0 mg/kg/injection, schedule: Q01DX005 (ip), vehicle: Klucel (hydroxypropylcellulose) (HPC)): 106 % of control and 109 % of control

Cn1c2nc3ccccc3c-2nc2ccccc21
T/C (dose: 1.56 mg/kg/injection, schedule: Q01DX009 (ip), vehicle: water): 100 % of control
T/C (dose: 3.13 mg/kg/injection, schedule: Q01DX009 (ip), vehicle: water): 92 % of control
T/C (dose: 6.25 mg/kg/injection, schedule: Q01DX009 (ip), vehicle: water): 88 % of control
T/C (dose: 12.5 mg/kg/injection, schedule: Q01DX009 (ip), vehicle: Klucel (hydroxypropylcellulose) (HPC)): 92 % of control
T/C (dose: 25.0 mg/kg/injection, schedule: Q01DX009 (ip), vehicle: Klucel (hydroxypropylcellulose) (HPC)): 99 % of control
T/C (dose: 50.0 mg/kg/injection, schedule: Q01DX009 (ip), vehicle: Klucel (hydroxypropylcellulose) (HPC)): 109 % of control
T/C (dose: 100.0 mg/kg/injection, schedule: Q01DX009 (ip), vehicle: Klucel (hydroxypropylcellulose) (HPC)): 106 % of control
T/C (dose: 200.0 mg/kg/injection, schedule: Q01DX009 (ip), vehicle: Klucel (hydroxypropylcellulose) (HPC)): 107 % of control

NC(CCSSCCC(N)P(=O)(O)O)P(=O)(O)O (centres undefined)
T/C [3]: 95 % of control
T/C [4]: 92 % of control
T/C [5]: 99 % of control

CC1=CC(=O)C=CC1(C)C(Cl)(Cl)Cl (centres undefined)
T/C (dose: 50.0 mg/kg/injection, schedule: Q01DX009 (ip), vehicle: saline with Tween-80): 110 % of control
T/C (dose: 100.0 mg/kg/injection, schedule: Q01DX009 (ip), vehicle: saline with Tween-80): 110 % of control
T/C (dose: 200.0 mg/kg/injection, schedule: Q01DX009 (ip), vehicle: saline with Tween-80): 105 % of control

C=CCn1nc(-c2ccccc2)c(-c2ccccc2)n1
T/C (dose: 100.0 mg/kg/injection, schedule: Q04DX003 (ip), vehicle: saline with Tween-80): 98 % of control
T/C (dose: 200.0 mg/kg/injection, schedule: Q04DX003 (ip), vehicle: saline with Tween-80): 95 % of control
T/C (dose: 400.0 mg/kg/injection, schedule: Q04DX003 (ip), vehicle: saline with Tween-80): 89 % of control

Cc1ccccc1C(=O)c1cc(Br)ccc1[N+](=O)[O-]
T/C (dose: 50.0 mg/kg/injection, schedule: Q01DX009 (ip), vehicle: saline): 91 % of control
T/C (dose: 100.0 mg/kg/injection, schedule: Q01DX009 (ip), vehicle: saline): 100 % of control
T/C (dose: 200.0 mg/kg/injection, schedule: Q01DX009 (ip), vehicle: saline): 100 % of control

Cn1c(=O)[nH]c(Cl)c(NC=O)c1=O
T/C (dose: 25.0 mg/kg/injection, schedule: Q01DX005 (ip), vehicle: water): 98 % of control
T/C (dose: 50.0 mg/kg/injection, schedule: Q01DX005 (ip), vehicle: water): 103 % of control
T/C (dose: 100.0 mg/kg/injection, schedule: Q01DX005 (ip), vehicle: water): 98 % of control
T/C (dose: 200.0 mg/kg/injection, schedule: Q01DX005 (ip), vehicle: water): 109 % of control

C=C=C(C)C(c1ccccc1)N(C)C (centres undefined)
T/C [1]: 108 % of control
T/C [2]: 109 % of control
